Here are results for 14 molecules from paper PMC8209153, “Improvement in aqueous solubility of achiral symmetric cyclofenil by modification to a chiral asymmetric analog” (Scientific Reports, 2021).

Converted amounts (≈) assume the structure as drawn.

The nature of series [1]: Thermodynamic aqueous solubility of the most stable crystals. It is filed as physicochemical. Conditions: for solubility at 48 h: phosphate buffer/EtOH (6:4), aqueous with cosolvent or surfactant or cyclodextrin, thermodynamic from solid, mixture of 0.067 M phosphate buffer (pH 6.8) and EtOH (6:4), shaken 48 h at 4 °C, most stable crystals; for Fold more soluble than symmetric isomer 6: relative to 6. The protocol: The crystals were ground with an agate mortar and suspended in a mixture of 0.067 M phosphate buffer (pH 6.8) and EtOH (6:4). The suspension was shaken for 48 h at 4 °C, then filtered through a Millipore Millex-LG filter (0.20 μm). The filtrate was diluted in DMF and subjected to HPLC. The solubility was calculated by the absolute calibration curve method. We used a mixed solvent because the solubility in 0.067 M phosphate buffer (pH 6.8) was too low to allow quantification. EtOH is used clinically as a solubilizer for insoluble drugs such as taxol and pacritaxel. When the solutions were shaken at 37 °C, hydrolysis of the ester moiety occurred, and therefore the suspensions were shaken at 4 °C.

Series [2] in a line: LogP. It is filed as physicochemical. An excerpt:
LogP values of all analogs were higher than that of 1, as expected. […] The observation that the measured crystal densities of 3b, 4a and (R)-4c were lower than that of 1 supports this idea.

Series [3] can be described thus: Crystal density (X-ray crystallography). It is filed as physicochemical. Conditions: measured crystal density.
The nature of series [4]: Membrane permeability by retention on IAM column. It is filed as in vitro ADME. Conditions: IAM.PC.DD2 column, 0.1 M phosphate buffer (pH 6.8) in 60% CH3CN, 1.0 mL/min, 37 °C. The protocol:
Membrane permeability was determined by HPLC on an IAM.PC.DD2 column (Regis Technologies, Inc., 10 μm, 300 Å, 30 mm × 4.6 mm) eluted with mobile phase consisting of 0.1 M phosphate buffer (pH 6.8) and CH3CN (4:6) at a flow rate of 1.0 mL/min, with UV monitoring at 254 nm, 37 °C.
Firstly, we evaluated membrane permeability by using an Immobilized Artificial Membrane (IAM) column, which contains silica gel bearing phosphatidylcholine and widely utilized to predict membrane permeability[31],[32].

For series [5], the system named is human cryopreserved hepatocytes. Kind of series: Metabolic rate of prodrugs in human cryopreserved hepatocytes. It is filed as in vitro ADME. Conditions: human hepatocytes 1.0×10^6 cells/mL, 50 μM, 2 h, 37 °C. The procedure: The metabolic rate of prodrugs was evaluated using human cryopreserved hepatocytes (Table 3). Although the metabolic rate of 3d with a bulky acyl group was decreased, most of the asymmetric structural analogs, including those with improved aqueous solubility (3b, 4a, (R)-4c), were metabolized to the active form as quickly as 1. Thus, we concluded that the chemical modifications applied here had little effect on the metabolic rate.
(§1) Test compounds (final 50 μM) in DMSO (final 0.5%) were added to a suspension of human hepatocytes (HMCS1S, Thermo Fisher Scientific) at a density of 1.0×10^6 cells/mL. The cells were incubated at 37 °C in humidified incubator (5% CO2) for 2 h, and then acetonitrile was added to stop the reaction. The mixture was vortexed and centrifuged at 15000 rpm for 10 min. HPLC analysis of the supernatant was performed on an analytical column (ODS reversed-phase column, 5 μm, 4.6 mm x 150 mm) eluted with a mobile phase consisting of H2O and CH3CN at a flow rate of 1.0 mL/min at 37 °C, with UV monitoring at 254 nm. Because some analogs were hydrolyzed in the absence of hepatocytes, we also evaluated the hydrolysis rate without hepatocytes.

The nature of series [6]: Hydrolysis of prodrugs without hepatocytes. It is filed as in vitro ADME. Conditions: 50 μM, 2 h, 37 °C. The procedure: as §1
For series [7], the target named is T1, ERα (Homo sapiens, UniProt P03372).
T1 construct: expressed in transfected cells; host or cells: HEK 293 cells
T1 sequence (P03372 311-547 limits assumed): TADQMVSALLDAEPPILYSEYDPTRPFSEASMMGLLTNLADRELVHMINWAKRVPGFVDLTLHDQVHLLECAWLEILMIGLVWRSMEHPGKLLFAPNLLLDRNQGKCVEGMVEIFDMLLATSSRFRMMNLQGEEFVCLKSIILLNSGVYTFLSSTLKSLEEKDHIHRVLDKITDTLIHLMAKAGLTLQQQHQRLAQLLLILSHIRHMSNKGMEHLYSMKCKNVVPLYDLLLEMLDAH
Kind of series: Luciferase reporter gene assay, ERα antagonistic activity. It is filed as cell-based. Conditions: HEK 293 cells, GAL4N-human ERα ligand binding domain, with 0.3 nM estradiol, 24 h; mean ± SD. The procedure:
(§2) HEK 293 cells were cultured in DMEM supplemented with 10% FBS and penicillin and streptomycin at 37 °C in a humidified incubator (5% CO2).
(§3) HEK 293 cells were plated at 20% confluence in a 96-well plate at 24 h prior to transfection. Transfection of plasmids (CMX-GAL4N-human ERα/β ligand binding domain, TK-MH100x4-Luc, CMX-β-galactosidase) was performed by the calcium phosphate coprecipitation method. Test compounds in DMSO (final 0.5%) were added at 24 h after transfection, together with 0.3 nM estradiol. The plate was incubated for 24 h, then luciferase substrate solution was added to each well and luminescence was measured on an EnVision microplate reader. β-Galactosidase was added and the absorbance was measured on the microplate reader with emission detection at 405 nm. Each sample was evaluated in triplicate for two times and the mean value was calculated. A six-point sigmoidal dose-response curve was generated for each compound. The IC50 value for each compound was calculated by Origin software. In Table 4, biological reproducibility is reported as the mean IC50 SD.

Series [8] has as its target T2, ERβ (Homo sapiens, UniProt Q92731).
T2 construct: expressed in transfected cells; host or cells: HEK 293 cells
Kind of series: Luciferase reporter gene assay, ERβ antagonistic activity. It is filed as cell-based. Conditions: HEK 293 cells, GAL4N-human ERβ ligand binding domain, with 0.3 nM estradiol, 24 h; mean ± SD. The procedure:
as §2, §3

Setting [9] is: phosphate buffer (pH 6.8)/EtOH (6:4).

T2 sequence (Q92731 264-498 limits assumed): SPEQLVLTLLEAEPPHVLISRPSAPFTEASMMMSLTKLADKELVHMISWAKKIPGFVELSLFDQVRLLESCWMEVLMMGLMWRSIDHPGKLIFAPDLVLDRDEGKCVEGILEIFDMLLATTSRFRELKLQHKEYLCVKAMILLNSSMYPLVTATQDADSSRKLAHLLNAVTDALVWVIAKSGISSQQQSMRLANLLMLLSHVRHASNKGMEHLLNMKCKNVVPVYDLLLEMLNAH

Take `CCCC(=O)Oc1ccc(C(=C2CCCCC2)c2ccc(OC(=O)CCC)cc2)cc1` [Compound 5b, (Cyclohexylidenemethylene)bis(4,1-phenylene)dibutyrate]: the melting point worked out at 80.9 °C. Besides, the solubility at 48 h in [1] was 0.964 µg/mL (≈ 2.29 µM). The logP in [2] was found to be 7.08. This molecule showed a Crystal density in [3] of 1.244 g/mL.
For `CCC(=O)Oc1ccc(C(=C2CCCCC2)c2ccc(OC(=O)CC)cc2)cc1` [Compound 5a, (Cyclohexylidenemethylene)bis(4,1-phenylene)dipropionate], the melting point came out at 139 °C. The solubility at 48 h in [1] was 0.622 µg/mL (≈ 1.58 µM). Besides, the logP in series [2] amounted to 6.02.
As for `CC(=O)Oc1ccc(C(=C2CCCCC2)c2ccc(OC(=O)C(C)(C)C)cc2)cc1` [Compound 3d, 4-((4-Acetoxyphenyl)(cyclohexylidene)methyl)phenylpivalate], the melting point is 127 °C. In addition, the solubility at 48 h in series [1] stood at 2.25 µg/mL (≈ 5.53 µM). This molecule also returned a logP in [2] of 6.5. In addition, the “Retention time on IAM column” value in series [4] came to 8.44 min. In [5], the “Hydrolysis rate with hepatocytes” value is recorded as 77.7%. In series [6], the “Hydrolysis rate without hepatocytes” value came to 0%.
In turn, `CC(C)C(=O)Oc1ccc(C(=C2CCCCC2)c2ccc(OC(=O)C(C)C)cc2)cc1` [Compound 5c, (Cyclohexylidenemethylene)bis(4,1-phenylene)bis(2-methylpropanoate)] displayed a melting point of 129 °C. Besides, the solubility at 48 h in series [1] is 0.0811 µg/mL (≈ 0.193 µM). In series [2], this molecule came in with a logP of 7.16.
On to `Oc1ccc(C(=C2CCCCC2)c2ccc(O)cc2)cc1` [Compound 2, Bis(4-hydroxyphenyl)methylenecyclohexane, reference compound], for which the half-maximal inhibitory concentration (IC50) turned out to be 0.013 ± 0.0075 µM in series [7] and 0.0045 ± 0.00099 µM in series [8].
The molecule `CC(=O)Oc1ccc(C(=C2CCCCC2)c2ccc(OC(C)=O)cc2C)cc1` [Compound 4b, 4-((4-Acetoxy-2-methylphenyl)(cyclohexylidene)methyl)phenylacetate] registered a melting point of 99.9 °C. In series [1], the solubility at 48 h came to 23.6 µg/mL (≈ 62.4 µM). The “Fold more soluble than symmetric isomer 6” value in series [1] (setting [9]) turned out to be 6.5 fold. In addition, in series [2], the logP was found to be 5.12.
`CC(=O)Oc1ccc(C(=C2CCCCC2)c2ccc(OC(=O)C(C)C)cc2)cc1` [Compound 3c, 4-((4-Acetoxyphenyl)(cyclohexylidene)methyl)phenylisobutyrate] displayed a melting point of 136.5 °C. Also, the solubility at 48 h in [1] was found to be 0.719 µg/mL (≈ 1.83 µM). The molecule also came in with a lipophilicity (logP) in [2] of 6.01. Further, in [4], the “Retention time on IAM column” value stood at 5.93 min. Further, the “Hydrolysis rate with hepatocytes” value in series [5] was 94.5%. The “Hydrolysis rate without hepatocytes” value in [6] was determined as 0%.
In the case of `CC(=O)Oc1ccc(C(=C2CCC(C)CC2)c2ccc(OC(C)=O)cc2)cc1` (stereo not drawn) [Compound 6, ((4-Methylcyclohexylidene)methylene)bis(4,1-phenylene)diacetate], the melting point amounted to 137 °C. Further, the solubility at 48 h in [1] stood at 3.61 µg/mL (≈ 9.54 µM). This molecule also registered a logP in [2] of 5.41. The molecule also displayed a Crystal density in series [3] of 1.243 g/mL.
For `C[C@@H]1CCCC(=C(c2ccc(O)cc2)c2ccc(O)cc2)C1` [(R)-13a, (R)-4,4’-((3-Methylcyclohexylidene)methylene)diphenol], the IC50 in [7] came to 0.016 ± 0.00071 µM; in series [8], 0.0045 ± 0.00057 µM.
In turn, `CCCC(=O)Oc1ccc(C(=C2CCCCC2)c2ccc(OC(C)=O)cc2)cc1` [Compound 3b, 4-((4-Acetoxyphenyl)(cyclohexylidene)methyl)phenylbutyrate] registered a melting point of 69 °C. The solubility at 48 h in series [1] is 10.8 µg/mL (≈ 27.5 µM). Moreover, in series [1] (relative to 5a, phosphate buffer (pH 6.8)/EtOH (6:4)), the “Fold more soluble than symmetric isomer 5a” value worked out at 17.3 fold. In addition, in series [2], the logP is 6. The molecule also showed a Crystal density in series [3] of 1.236 g/mL. For the same molecule, the “Retention time on IAM column” value in series [4] is on record as 5.97 min. The “Hydrolysis rate with hepatocytes” value in series [5] is given as 92.1%. In addition, in [6], the “Hydrolysis rate without hepatocytes” value was determined as 6.3%.
As to `CC(=O)Oc1ccc(C(=C2CCCCC2)c2ccc(OC(C)=O)c(C)c2)cc1` [Compound 4a, 4-((4-Acetoxy-3-methylphenyl)(cyclohexylidene)methyl)phenylacetate], the melting point worked out at 114 °C. Also, the solubility at 48 h in [1] turned out to be 10.3 µg/mL (≈ 27.2 µM). For the same molecule, the “Fold more soluble than symmetric isomer 6” value in series [1] (setting [9]) was 2.9 fold. Moreover, in series [2], the logP amounted to 5.26. Further, in [4], the “Retention time on IAM column” value was found to be 3.72 min. For the same molecule, in series [5], the “Hydrolysis rate with hepatocytes” value was 100%. The “Hydrolysis rate without hepatocytes” value in series [6] was 0%.
With `CC(=O)Oc1ccc(C(=C2CCC[C@@H](C)C2)c2ccc(OC(C)=O)cc2)cc1` [(R)-4c, (R)-((3-Methylcyclohexylidene)methylene)bis(4,1-phenylene)diacetate], the melting point turned out to be 92 °C. The solubility at 48 h in [1] amounted to 27.8 µg/mL (≈ 73.5 µM). Further, in [1] (setting [9]), the “Fold more soluble than symmetric isomer 6” value was 7.7 fold. In series [1] (relative to cyclofenil (1), phosphate buffer (pH 6.8)/EtOH (6:4)), the “Fold more soluble than 1” value amounted to 3.6 fold. The same molecule displayed a logP in series [2] of 5.34. Moreover, the Crystal density in series [3] came out at 1.227 g/mL. Moreover, the “Retention time on IAM column” value in [4] turned out to be 3.93 min. Also, in series [5], the “Hydrolysis rate with hepatocytes” value was found to be 100%. Also, the “Hydrolysis rate without hepatocytes” value in series [6] was 13.8%.
As for `Cc1cc(C(=C2CCCCC2)c2ccc(O)cc2)ccc1O` [Compound 10a, 4-(Cyclohexylidene(4-hydroxyphenyl)methyl)-2-methylphenol], the results for the IC50 in series [7] and in [8] were 0.12 ± 0.0071 µM and 0.051 ± 0.04 µM, respectively.
`CCC(=O)Oc1ccc(C(=C2CCCCC2)c2ccc(OC(C)=O)cc2)cc1` [Compound 3a, 4-((4-Acetoxyphenyl)(cyclohexylidene)methyl)phenylpropionate] came in with a melting point of 132.8 °C. For the same molecule, in [1], the solubility at 48 h was 3.38 µg/mL (≈ 8.93 µM). In series [2], the logP came to 5.48. Besides, the “Retention time on IAM column” value in series [4] was found to be 4.22 min. The “Hydrolysis rate with hepatocytes” value in [5] was 100%. The “Hydrolysis rate without hepatocytes” value in series [6] is 15.8%.
